Data on 15 molecules can be found in patent US6229016A, “Method for treating tumors using 2-aryl-naphthyridin-4-ones” (priority 2000, dated 2001).

The term GI50 denotes the concentration at which growth is held to half of that of the control.

Holding throughout (format): cell-based
The subject of test [1] is MDA-MB-435 breast cancer cell line. Description: NCI in vitro screen, breast cancer MDA-MB-435. As to conditions: Homo sapiens, read-out: Cytotoxicity log GI50 (converted).
In test [2] the test system is HL-60(TB) leukemia cell line. Description: cells. As to conditions: Homo sapiens; HL-60(TB); read-out: Cytotoxicity log GI50 (converted).
Test [3] concerns HCT-116 colon cancer cell line. Kind of test: NCI in vitro screen, colon cancer HCT-116. To be noted: Homo sapiens; HCT-1.16 (head); HCT-116 (footnote); read-out: Cytotoxicity log GI50 (converted).
Test [4] concerns SF-295 CNS cancer cell line. Description: NCI in vitro screen, CNS cancer SF-295. To be noted: Homo sapiens, read-out: Cytotoxicity log GI50 (converted).
Test [5] deals with PC-3 prostate cancer cell line. Description: NCI in vitro screen, prostate cancer PC-3. As to conditions: Homo sapiens, read-out: Cytotoxicity log GI50 (converted). The source says: (§1) Compounds 41-51 and 53-68 were submitted to NCI and assayed in the NCI's in vitro disease-oriented antitumor screen, which involves determination of a test compound's effects on the growth of approximately 60 human tumor cell lines. See, M. R. Boyd, et al. In Cancer: Principles and Practice of Oncology Updates; De Vita, V. T., Hellman, S., Rosenberg, S. A., Eds; J. B. Lippincoft: Philadelphia, pp 1-12 (1989); and A. Monks, et al. J. Natl. Cancer Inst. 83:757 (1991). These lines include leukemia, non-small cell lung, colon, central nervous system (CNS), melanoma, ovarian, renal, prostate, and breast cancers.
(§2) Compounds 29'-51' were submitted to NCI and assayed in the NCI's in vitro disease-oriented antitumor screen, using the techniques described in Example 5. This assay involves determinations of a test agent's effect on growth parameters against a panel of approximately 60 human tumor cell lines, derived largely from solid tumors, including non-small cell lung, colon, central nervous system, renal, ovarian, prostate, and breast cancers, plus a few leukemia cell lines. The cytotoxic effects of each compound are obtained as GI50 or […] values, which represent the molar drug concentrations required to cause half growth inhibition and total growth inhibition, respectively. The results are expressed for each cell line as average log GI50 values in Table 4, as log GI50 values in Table 5, and as log TGI values and average log TGI values in Table 6.

Test [6] concerns NCI-H460 non-small cell lung cancer cell line. Kind of test: NCI in vitro screen, non-small cell lung cancer NCI-H460. As to conditions: Homo sapiens, read-out: Cytotoxicity log GI50 (converted).
Test [7] has as its system SK-MEL-5 melanoma cell line. Description: NCI in vitro screen, melanoma SK-MEL-5. To be noted: Homo sapiens, read-out: Cytotoxicity log GI50 (converted).
Source text: as §1, §2

For test [8], the system named is 786-0 renal cancer cell line. Kind of test: NCI in vitro screen, renal cancer 786-0. To be noted: Homo sapiens, read-out: Cytotoxicity log GI50 (converted).
Source text: as §1, §2

Test [9] deals with NCI's 60 human tumor cell line. Kind of test: NCI 60 human tumor cell line in vitro screen (average / whole panel). To be noted: calculated from all cell lines tested, molar concentrations, read-out: average log GI50 (converted).
The subject of test [10] is MDA-N breast cancer cell line. Description: NCI in vitro screen, breast cancer MDA-N. To be noted: Homo sapiens, read-out: Cytotoxicity log GI50 (converted).
Source text: as §1, §2

Test [11] relates to U-251 CNS cancer cell line. Description: NCI in vitro screen, CNS cancer U-251. As to conditions: Homo sapiens, read-out: Cytotoxicity log GI50 (converted).
Test [12] deals with OVCAR-3 ovarian cancer cell line. Kind of test: NCI in vitro screen, ovarian cancer OVCAR-3. To be noted: Homo sapiens, read-out: Cytotoxicity log GI50 (converted).

As for `Cc1cnc2[nH]c(-c3cccc(F)c3)cc(=O)c2c1` [29'], the 50% growth inhibitory concentration (GI50) in test [1] is under 0.01 µM; in [2], 0.0204 µM; in test [3], 0.024 µM; in test [4] it was 0.0275 µM; in [5], 0.0347 µM; in test [6], 0.0389 µM. In addition, the concentration for 50% growth inhibition (GI50) is 0.0282 µM in [7]; 0.0282 µM in test [8]; 0.0501 µM in test [9]; 0.0117 µM in [10]; 0.0407 µM in [11]; 0.0135 µM in [12].
`Cc1ccc2c(=O)cc(-c3cccc(F)c3)[nH]c2n1` [30']: the GI50 in test [1] is 0.0123 µM; in [2], 0.0224 µM; in test [3], 0.0282 µM; in test [4] it was 0.0288 µM; in test [5] it was 0.0347 µM; in test [6], 0.0331 µM. Besides, the concentration for 50% growth inhibition (GI50) in [7] was 0.0224 µM; in test [8], 0.0457 µM; in test [9], 0.0427 µM; in test [10], 0.0145 µM; in test [11] it was 0.038 µM; in test [12] it was 0.0195 µM.
For `Cc1cc(C)c2c(=O)cc(-c3cccc(F)c3)[nH]c2n1` [31'], the GI50 in test [1] was under 0.01 µM; in [2], 0.0372 µM; in test [3], under 0.01 µM; in test [4], 0.0331 µM; in test [5] it was 0.0617 µM; in [6], 0.0537 µM. For the same molecule, the 50% growth inhibitory concentration (GI50) in [7] was 0.0372 µM; in [8], 0.0355 µM; in test [9] it was 0.0851 µM; in test [10], 0.0129 µM; in [11] it was 0.0646 µM; in test [12] it was 0.0182 µM.
Take `O=c1cc(-c2cccc(Cl)c2)[nH]c2ncccc12` [32']: the GI50 was under 0.01 µM in [1]; 0.0105 µM in test [2]; 0.0288 µM in test [3]; 0.0631 µM in [4]; 0.0224 µM in [5]; 0.0871 µM in test [6]. Moreover, the concentration for 50% growth inhibition (GI50) in [7] is 0.0525 µM; in test [8] it was 0.0562 µM; in test [9], 0.229 µM; in test [10], 0.0174 µM; in [11], 0.145 µM; in test [12], 0.0457 µM.
As to `Cc1ccnc2[nH]c(-c3cccc(Cl)c3)cc(=O)c12` [33'], the 50% growth inhibitory concentration (GI50) in [1] is under 0.01 µM; in test [2], 0.01 µM; in test [3], 0.0158 µM; in test [4], 0.0407 µM; in test [5], 15.5 µM; in [6] it was 0.0389 µM. Moreover, the GI50 in test [7] was 0.0417 µM; in [8], 0.0331 µM; in test [9], 0.158 µM; in [10] it was 0.0117 µM; in test [11], 0.0525 µM; in test [12], 0.0316 µM.
As for `Cc1cnc2[nH]c(-c3cccc(Cl)c3)cc(=O)c2c1` [34'], the GI50 in test [1] is under 0.01 µM; in [2], 0.0309 µM; in test [3], 0.0302 µM; in [4], 0.0251 µM; in test [5], over 100 µM; in test [6], 0.0501 µM. Moreover, the GI50 in test [7] was 0.0708 µM; in test [8], 0.0427 µM; in test [9], 0.269 µM; in [10], over 100 µM; in test [11] it was 0.0692 µM; in test [12], 0.0224 µM.
Consider `Cc1ccc2c(=O)cc(-c3cccc(Cl)c3)[nH]c2n1` [35'], for which the GI50 in [1] is under 0.01 µM; in [2], 0.0288 µM; in test [3], 0.0257 µM; in test [4], 0.0229 µM; in test [5], over 100 µM; in [6], 0.0417 µM. The GI50 is 0.0316 µM in [7]; 0.0417 µM in test [8]; 0.17 µM in [9]; over 100 µM in [10]; 0.0646 µM in [11]; under 0.01 µM in test [12].
With `Cc1cc(C)c2c(=O)cc(-c3cccc(Cl)c3)[nH]c2n1` [36'], the GI50 in [1] is 0.0132 µM; in test [2], 0.0741 µM; in [3], 0.17 µM; in test [4], 0.0479 µM; in test [5], 0.0275 µM; in test [6], 0.224 µM. The concentration for 50% growth inhibition (GI50) was 0.117 µM in test [7]; 0.204 µM in [8]; 0.347 µM in test [9]; 0.0191 µM in [10]; 0.295 µM in test [11]; 0.17 µM in [12].
For the molecule `Cc1cccc(-c2cc(=O)c3cccnc3[nH]2)c1` [37'], the GI50 is under 0.01 µM in test [1]; 0.0191 µM in [2]; 0.0224 µM in test [3]; 0.0372 µM in test [4]; 0.0427 µM in test [5]; 0.0257 µM in [6]. Besides, the concentration for 50% growth inhibition (GI50) in test [7] is 0.0257 µM; in test [8] it was 0.0372 µM; in test [9] it was 0.0955 µM; in test [10], under 0.01 µM; in test [11] it was 0.0447 µM; in test [12] it was 0.0417 µM.
With `Cc1cccc(-c2cc(=O)c3c(C)ccnc3[nH]2)c1` [38'], the GI50 in test [1] is under 0.01 µM; in test [2], 0.0182 µM; in test [3], 0.0468 µM; in test [4], 0.0302 µM; in test [5], 0.0331 µM; in [6], 0.0363 µM. The concentration for 50% growth inhibition (GI50) in [7] was 0.0339 µM; in test [8], 0.0537 µM; in test [9], 0.0575 µM; in test [10], 0.011 µM; in test [11] it was 0.0537 µM; in test [12], 0.0224 µM.
For the molecule `Cc1cccc(C2=Nc3ncc(C)cc3C(=O)C2)c1` [Compound 39, 2-(3'-Methylphenyl)-6-methyl-1,8-naphthyridin-4-one], the 50% growth inhibitory concentration (GI50) in test [1] was under 0.01 µM; in [2], 0.174 µM; in test [3] it was 0.407 µM; in test [4] it was 0.417 µM; in test [5], 0.309 µM; in test [7], 0.288 µM. The GI50 in test [8] was 0.437 µM; in test [9], 0.646 µM; in test [10], under 0.01 µM; in test [11] it was 0.17 µM; in test [12] it was 0.251 µM.
Turning to `COc1ccccc1-c1cc(=O)c2cccnc2[nH]1` [Compound 39], the GI50 was 39.8 µM in test [1]; 38.9 µM in [2]; 27.5 µM in test [3]; 23.4 µM in [4]; 29.5 µM in [5]; 38.9 µM in [6]. Besides, the GI50 was 31.6 µM in [7]; 36.3 µM in test [8]; 40.7 µM in test [9]; 20 µM in [10]; 67.6 µM in [11]; 47.9 µM in [12].
As for `Cc1cccc(C2=Nc3nc(C)ccc3C(=O)C2)c1` [Compound 40, 2-(3'-Methylphenyl)-7-methyl-1,8-naphthyridin-4-one], the GI50 was 0.0324 µM in test [1]; 0.0269 µM in [2]; 0.12 µM in [3]; 0.0603 µM in test [4]; 0.138 µM in [5]; 0.0178 µM in test [6]. Further, the 50% growth inhibitory concentration (GI50) in [7] is 0.126 µM; in [8], 0.427 µM; in test [9], 0.0977 µM; in test [10] it was 0.0316 µM; in [11] it was 0.2 µM; in test [12], 0.49 µM.
With `Cc1cccc(C2=Nc3nc(C)cc(C)c3C(=O)C2)c1` [Compound 41, 2-(3'-Methylphenyl)-5,7-dimethyl-1,8-naphthyridin-4-one], the 50% growth inhibitory concentration (GI50) in test [1] was 20 µM; in [2], 12.9 µM; in test [3] it was 17.8 µM; in test [4] it was 64.6 µM; in test [5], 31.6 µM; in test [6] it was 44.7 µM. For the same molecule, the 50% growth inhibitory concentration (GI50) in test [7] is 34.7 µM; in test [8] it was 56.2 µM; in test [10], 20.9 µM; in test [11], 53.7 µM; in [12], 30.2 µM.
As to `O=C1CC(c2cccc3ccccc23)=Nc2ncccc21` [Compound 42, 2-(α-Naphthyl)-1,8-naphthyridin-4-one], the 50% growth inhibitory concentration (GI50) in test [1] was under 0.01 µM; in test [2] it was under 0.01 µM; in [3], under 0.01 µM; in test [4], under 0.01 µM; in [5] it was 0.0178 µM; in test [6] it was 0.0389 µM. For the same molecule, the 50% growth inhibitory concentration (GI50) in test [7] is under 0.01 µM; in test [8] it was 0.0151 µM; in test [10], under 0.01 µM; in [11], 0.0102 µM; in test [12] it was under 0.01 µM.
